Reference: US20210220408A1, “ARYL HYDROCARBON RECEPTOR ANTAGONISTS AND METHODS OF USE” (Magenta Therapeutics Inc., priority 2018, published 2021)

target: T1, aryl hydrocarbon receptor (AHR) (Homo sapiens, UniProt P35869); experiment: DRE-Luciferase reporter high-throughput screen (AHR antagonist, VAF347-activated)
T1 sequence (P35869 11-848): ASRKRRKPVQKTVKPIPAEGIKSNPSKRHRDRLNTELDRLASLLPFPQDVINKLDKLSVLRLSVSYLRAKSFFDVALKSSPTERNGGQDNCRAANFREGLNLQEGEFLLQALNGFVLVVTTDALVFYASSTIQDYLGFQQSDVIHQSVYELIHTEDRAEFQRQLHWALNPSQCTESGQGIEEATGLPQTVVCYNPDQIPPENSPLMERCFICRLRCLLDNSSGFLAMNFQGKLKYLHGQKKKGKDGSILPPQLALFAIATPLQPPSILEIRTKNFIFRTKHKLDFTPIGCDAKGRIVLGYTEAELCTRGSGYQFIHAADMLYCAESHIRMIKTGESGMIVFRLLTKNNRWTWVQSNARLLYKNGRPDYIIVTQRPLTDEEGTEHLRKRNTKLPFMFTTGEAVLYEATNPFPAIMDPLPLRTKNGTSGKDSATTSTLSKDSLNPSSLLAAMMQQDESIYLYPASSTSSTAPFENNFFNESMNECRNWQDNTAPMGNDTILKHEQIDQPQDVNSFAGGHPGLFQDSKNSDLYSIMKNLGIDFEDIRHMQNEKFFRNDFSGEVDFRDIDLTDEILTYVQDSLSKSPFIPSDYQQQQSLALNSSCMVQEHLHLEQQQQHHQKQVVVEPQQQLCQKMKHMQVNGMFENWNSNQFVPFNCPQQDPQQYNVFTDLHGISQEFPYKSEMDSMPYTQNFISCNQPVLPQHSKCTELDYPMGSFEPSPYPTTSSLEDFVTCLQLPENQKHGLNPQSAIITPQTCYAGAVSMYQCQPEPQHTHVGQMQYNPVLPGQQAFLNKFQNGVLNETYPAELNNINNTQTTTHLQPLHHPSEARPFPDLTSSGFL

| IC50 [nM] | SMILES |
| --- | --- |
| 1000 to 2000 | OCc1cc(Cl)c(OCc2ccc(F)cc2)c(Cl)c1 [90B] |
| 1000 to 2000 | Cc1cc(C)n(CC(C)Nc2ccc(Cl)c(C#N)n2)n1 (stereo not shown) [91A] |
| 1000 to 2000 | CCSc1ccc(-c2ccc(-n3cccn3)cc2)nn1 [91B] |
| 1000 to 2000 | Cc1ccc(CS(=O)(=O)c2ccc(C(F)(F)F)cn2)cc1 [92A] |
| 1000 to 2000 | COC(OC)c1ccc(C#N)c(=O)n1Cc1ccc(Cl)cc1 [92B] |
| 1000 to 2000 | N#Cc1ccc(OCc2ncc(C(F)(F)F)cc2Cl)cc1 [93A] |
| 200 to 500 | O=S(=O)(Cc1cccc(F)c1)c1ccc2ccccc2c1 [93B] |
| 1000 to 2000 | COc1ccnc(Sc2ccc(Cl)cc2)c1C#N [94A] |
| > 2000 | COc1ccc(Sc2nccc(N(C)C)c2C#N)cc1 [95A] |
| 500 to 1000 | Cc1cccc(CSc2nncc3ccccc23)c1 [95B] |
| 1000 to 2000 | c1ccc(-c2ccc(OCc3cn4ccsc4n3)cc2)cc1 [96A] |
| > 2000 | O=C(Nc1cccc(F)c1)Nc1ccc2c(c1)C(=O)OC2 [96B] |
| 1000 to 2000 | O=C(c1csc2nc(-c3ccc(F)cc3)cn12)N1C[C@@H]2CC[C@@H]1C2 [97A] |
| 1000 to 2000 | CCOC(=O)c1ccc(Nc2nc3nonc3[nH]/c2=N\OC(C)=O)cc1 [97B] |
| 1000 to 2000 | COc1cccc(-c2nn3c(-c4ccccn4)nnc3s2)c1 [98A] |
| 1000 to 2000 | Clc1ccc(Nc2nnc(-c3ccncc3)s2)cc1 [98B] |
| 1000 to 2000 | c1cncc(-c2nnc3sc(-c4csc5c4CCCC5)nn23)c1 [99A] |
| > 2000 | CSc1ccc(-c2nnc(NC(=O)C(C)(C)C)s2)cc1 [99B] |
| > 2000 | CCOC(=O)c1cc(-c2ccc(F)cc2)[nH]c1C [100A] |
| > 2000 | c1ccc(-c2ccc(N3CCOCC3)s2)cc1 [100B] |
| 1000 to 2000 | CC(C)NC(=O)c1nc(-c2cn(-c3ccccc3)cn2)n2ccccc12 [101A] |
| 200 to 500 | CC(=O)Nc1cc(Cl)c(-c2ccc([N+](=O)[O-])o2)c(Cl)c1 [101B] |
| 1000 to 2000 | O=[N+]([O-])c1ccc(C2COC(c3ccc(Cl)cc3)O2)cc1 (stereo not shown) [102B] |
| 1000 to 2000 | C(#Cc1ccc(-c2ccn[nH]2)cc1)c1ccccc1 [103A] |
| 500 to 1000 | O=C1CC(c2ccc(Cl)cc2)CN1C(=O)Nc1ccccc1 (stereo not shown) [103B] |

| IC50 [nM] | SMILES |
| --- | --- |
| > 2000 | CN(Cc1ccn(C)n1)C(=O)c1cc(-c2ccc(Cl)c(Cl)c2)[nH]n1 [104A] |
| 500 to 1000 | Cc1cc(-c2ccccc2)nc2c1/C(=N\O)CC(C)(C)C2 [104B] |
| > 2000 | Cc1c(-c2cc(NC(=O)C3CC3)[nH]n2)sc2ccc(Cl)cc12 [105A] |
| 1000 to 2000 | CCCc1cc(C(=O)N2CCC(C3CCCCC3)C2)[nH]n1 (stereo not shown) [106A] |
| < 200 | CN(C)c1ccnc2sc(C(=O)c3ccccc3)c(N)c12 [106B] |
| 1000 to 2000 | CNS(=O)(=O)c1ccc2c(c1)CCN2C(=O)c1ccn(-c2cccc(F)c2)n1 [107A] |
| 200 to 500 | O=C(NCCc1ccc(Cl)cc1)c1cccc2nsnc12 [107B] |
| > 2000 | COC(=O)c1ccc(NC(=O)CCn2nc(C)cc2C)s1 [108A] |
| 1000 to 2000 | CC(=O)N(CCc1ccccc1F)c1nc2ccccc2s1 [108B] |
| 1000 to 2000 | Cc1ccc(-c2nnc(-c3ccncc3)[nH]2)c([N+](=O)[O-])c1 [109A] |
| 1000 to 2000 | O=C(NCCC1=CCCCC1)c1[nH]nc2c1CCCC2 [109B] |
| 1000 to 2000 | Cc1ccc(-n2nnc(-c3ccc(Cl)cc3)n2)cc1 [110A] |
| 200 to 500 | COc1ccc(-c2cc(=O)c3cc(OC(=O)C(C)(C)C)ccc3o2)cc1 [110B] |
| 1000 to 2000 | O=C(Cc1ccccc1)Nc1ccc2nc(C(F)(F)F)[nH]c2c1 [111A] |
| 200 to 500 | O=c1ccc2ccc(OCc3ccc(F)cc3Cl)cc2o1 [111B] |
| 1000 to 2000 | COc1ccc(OCCSc2nc3ccc(Br)cc3[nH]2)cc1 [112A] |
| 200 to 500 | O=c1cc(CSc2nc3cc(Cl)ccc3o2)nc2sccn12 [112B] |
| 1000 to 2000 | Cc1ccc2nc(C3=C(N)N(CC(C)C)CC3=O)[nH]c2c1 [113A] |
| 1000 to 2000 | Cc1ccc(OCc2cc(=O)n3ccsc3n2)cc1C [113B] |
| 1000 to 2000 | FC(F)(F)c1cccc(Nc2nc3ccccc3[nH]2)c1 [114A] |
| 1000 to 2000 | N#Cc1ccc(CSc2ncc3ccccn23)cc1 [115A] |
| 500 to 1000 | Cc1cccc(N2CC[C@H]3[C@H]2CCN3c2ncccn2)n1 [115B] |
| > 2000 | Clc1ccc2nnn(OCc3cn4cc(Cl)ccc4n3)c2c1 [116A] |
| 1000 to 2000 | COC(=O)c1cc2c(ccn2-c2ccc(F)cc2)n1CCC#N [116B] |
| > 2000 | O=C(COC(=O)c1cn2ccccc2n1)Nc1ccc(Cl)cc1Cl [117A] |

| IC50 [nM] | SMILES |
| --- | --- |
| 1000 to 2000 | CCCCCc1ccc2c(C#N)c(OC)ccc2c1 [117B] |
| 1000 to 2000 | COc1ccc(-c2cc3ncc(-c4ccccc4)c(N)n3n2)cc1 [118A] |
| > 2000 | CC(=O)c1oc2ccc3c(C)cc(=O)oc3c2c1C [118B] |
| 1000 to 2000 | COCCNc1c(C)c(C)nc2cc(-c3cc(C)oc3C)nn12 [119A] |
| 200 to 500 | Cc1nn2c(-c3cccc(NC(=O)CN4CCCCC4)c3)nnc2c2ccccc12 [119B] |
| 1000 to 2000 | Cc1cc(Cl)ccc1OCc1cn2cccnc2n1 [120A] |
| 500 to 1000 | N#Cc1c(N)c(-c2ccc(F)cc2)cn2c1nc1ccccc12 [120B] |
| > 2000 | COc1ccc(C(=O)c2cnc3ncccn23)cc1 [121A] |
| 500 to 1000 | COc1ccc(C2=C(C#N)c3nc4ccccc4n3C(=O)C2C#N)cc1 (stereo not shown) [121B] |
| 1000 to 2000 | Cc1cc(C)c2c(NCc3ccccc3F)[nH]nc2n1 [122A] |
| 1000 to 2000 | CCn1c2ccccc2c2nnc(-n3nc(C)cc3C)nc21 [122B] |
| 1000 to 2000 | COc1ccccc1CNc1[nH]nc2nc(C)cc(C)c12 [123A] |
| 1000 to 2000 | N#Cc1c(N)nc2c(oc3ccccc32)c1-c1ccccc1 [123B] |
| > 2000 | Cc1nc(-c2ccc(OC3=CC=C4N=NC(C(F)(F)F)N4N3)cc2)no1 (stereo not shown) [124A] |
| 500 to 1000 | Cc1ccc2nc3c(c(N)c2c1)CCN3c1ccccc1 [124B] |
| 1000 to 2000 | Cc1nc2nc(SCCOc3ccc(C#N)cc3)nn2c(C)c1C [125A] |
| 200 to 500 | Cc1cccn2c(=O)c3cc(C(=O)NCc4ccccc4Cl)sc3nc12 [125B] |
| 1000 to 2000 | COC(=O)C1=C(C)Nc2nc(-c3ccccc3)nn2C1c1cccnc1 (stereo not shown) [126A] |
| 1000 to 2000 | COc1ccc(C2=Nn3c(nc4ccsc4c3=O)SC2)cc1 [126B] |
| 1000 to 2000 | N#Cc1ccccc1OCc1cc(-c2cccs2)on1 [127A] |
| > 2000 | Cn1c(CCC(=O)OCC(=O)N2c3ccccc3CCc3ccccc32)nc2ccccc2c1=O [127B] |
| 1000 to 2000 | c1ccc(-c2cc(-c3cn4cccnc4n3)on2)cc1 [128A] |
| 1000 to 2000 | Cc1c(COc2ccccc2C#N)noc1-c1ccc(F)cc1 [129A] |
| 1000 to 2000 | c1ccc(-c2ccc(OCc3ccno3)cc2)cc1 [130A] |
| 1000 to 2000 | Cc1nccc(-c2cc(-c3ccc(Cl)cc3Cl)no2)n1 [131A] |

| IC50 [nM] | SMILES |
| --- | --- |
| 1000 to 2000 | Clc1ccc2nnn(OCc3coc(-c4cccs4)n3)c2c1 [132A] |
| 1000 to 2000 | c1ccc(-c2nc(CSc3nncn3-c3ccccc3)co2)cc1 [133A] |
| 1000 to 2000 | Cc1ccc(-c2nc(Cn3cnc(C#N)n3)co2)c(C)c1 [134A] |
| > 2000 | Cc1ccc(-c2nc(CSc3nccn3-c3ccccc3)co2)cc1 [136A] |
| > 2000 | COc1ccc(-c2noc(-c3cscn3)n2)cn1 [137A] |
| 1000 to 2000 | Cc1nn(C)cc1-c1nnc(-c2cccc(C(F)(F)F)c2)o1 [138A] |
| 1000 to 2000 | O=C(COc1ccccc1-c1nnc(-c2ccccc2)o1)NCc1ccccn1 [139A] |
| 1000 to 2000 | CNC(=O)c1ccc(CN(C)C(=O)c2ccc(-c3nnc(-c4ccccc4C)o3)cc2)cc1 [140A] |
| 1000 to 2000 | Cc1ccccc1OCCNC(=O)c1cc(Cl)ccc1F [141A] |
| > 2000 | N#Cc1ccccc1OCc1ccc(C(N)=O)cc1 [142A] |
| > 2000 | COc1ccc(CC(=O)Nc2ccc(-c3csc(C)n3)cc2)cc1 [143A] |
| 1000 to 2000 | CCCN(C(=O)C1CC1)c1nnc(-c2ccc(Cl)cc2)s1 [144A] |
| 1000 to 2000 | CN(c1nnc(NC(=O)Nc2ccccc2C(F)(F)F)s1)C1CCCCC1 [145A] |
| 1000 to 2000 | COC(=O)c1sc(-c2ccc(CC(C)C)cc2)cc1N [146A] |
| > 2000 | Cc1ccc(NC(=O)CN(C)C(C)c2cccs2)c(F)c1 (stereo not shown) [147A] |
| 1000 to 2000 | O=C(c1csc(-c2ccc(Cl)cc2)c1)N1CCCCC1 [148A] |
| > 2000 | Fc1ccc(-c2ccc(-c3nnc4n3CCCCC4)s2)cc1 [149A] |
| > 2000 | N#Cc1c(-c2ccc(Br)cc2)csc1N1CCCCC1 [150A] |
| 1000 to 2000 | CN(C)c1oc(-c2ccc(COc3ccccc3)o2)nc1C#N [151A] |
| 1000 to 2000 | COc1ccc(N2CC(c3ccc(F)cc3)=CC2=O)cc1 [152A] |
| > 2000 | C/C(=N\CCc1ccccc1)c1c(C(F)(F)F)[nH]n(-c2nc3ccccc3s2)c1=O [153A] |
| > 2000 | N#Cc1cc(NCCOCC(F)(F)F)nc2ccc([N+](=O)[O-])cc12 [154A] |
